Results: patent US20240317727A1 (Duke University, priority 2018, published 2024)

Assays:
Assay type in all cases: cell-based
HCT-15 = assay: NCI60 cell growth and viability: HCT-15; conditions: HCT-15, Colon Cancer, two days
IGROV1 = assay: NCI60 cell growth and viability: IGROV1; conditions: IGROV1, Ovarian Cancer, two days
SK-MEL-5 = assay: NCI60 cell growth and viability: SK-MEL-5; conditions: SK-MEL-5, Melanoma, two days
TK-10 = assay: NCI60 cell growth and viability: TK-10; conditions: TK-10, Renal Cancer, two days
SN12C = assay: NCI60 cell growth and viability: SN12C; conditions: Renal Cancer, two days
U251 = assay: NCI60 cell growth and viability: U251; conditions: U251, CNS Cancer, two days
[1] = Homo sapiens, 48 h, read-out: log10 [GI50 (M)] (converted)
[2] = Homo sapiens, 48 h, read-out: log10 [LC50 (M)] (converted)

`O=C(Nc1ccc(F)cc1)Nc1ccc(Cl)c([N+](=O)[O-])c1` [Compound 0017, 1-(4-chloro-3-nitrophenyl)-3-(4-fluorophenyl)urea] was tested, and the “log10 [TGI (M)]” value (HCT-15) was −4.92 log10 M, the GI50 (HCT-15; [1]) was 2.95e-06 M and the CC50 (HCT-15; [2]) was 3.72e-05 M. The GI50 (IGROV1; Homo sapiens, IGROV-1, 48 h, read-out: log10 [GI50 (M)] (converted)) was 4.79e-06 M, the CC50 (IGROV1; Homo sapiens, IGROV-1, 48 h, read-out: log10 [LC50 (M)] (converted)) was 7.41e-05 M and the “log10 [TGI (M)]” value (IGROV1) was −4.73 log10 M. For the same molecule, the GI50 (SK-MEL-5; [1]) was 1.78e-06 M, the CC50 (SK-MEL-5; [2]) was 5.89e-06 M and the “log10 [TGI (M)]” value (SK-MEL-5) was −5.49 log10 M. For the same molecule, the GI50 (TK-10; [1]) was 4.07e-06 M, the CC50 (TK-10; [2]) was 6.92e-05 M and the “log10 [TGI (M)]” value (TK-10) was −4.70 log10 M. For the same molecule, the GI50 (SN12C; [1]) was 2.95e-06 M, the CC50 (SN12C; [2]) was 4.27e-05 M and the “log10 [TGI (M)]” value (SN12C) was −4.93 log10 M. The GI50 (U251; Homo sapiens, U-251, 48 h, read-out: log10 [GI50 (M)] (converted)) was 3.16e-06 M, the CC50 (U251; Homo sapiens, U-251, 48 h, read-out: log10 [LC50 (M)] (converted)) was 4.37e-05 M and the “log10 [TGI (M)]” value (U251) was −4.90 log10 M.
